# Data taken from the supplement of paper PMC10307832.
# Compound: CC1=CC(=CC=C1)NC2=NC(=CS2)C3=CC=NC=C3 + Cc1nc(Nc2ncc(C(=O)Nc3c(C)cccc3Cl)s2)cc(N2CCN(CCO)CC2)n1 [Dasatinib] (partner 0.075 µM)
# Assay: relative viability (nuclei count vs DMSO), 5 days (fraction); higher = more cells survive
# Conditions: first compound 8 µM
# Method in brief: (§1)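 Dosing by pin tool came one day after lung cancer cell lines were seeded in 1536-well plates, using either one drug or a fixed anchor-drug dose plus five library-drug doses (not always all listed) in √10 steps. After 5 days, nuclei were counted on 4× images. Relative viability is treated-well nuclei count divided by vehicle-well nuclei count, and values are medians of duplicate plates.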
row,Cell Line,relative viability
1,HCC-78,0.523
2,NCI-H1563,0.434
3,NCI-H1792,0.63

# Compound: CC1=CC(=CC=C1)NC2=NC(=CS2)C3=CC=NC=C3 + CCNC(=O)c1noc(-c2cc(C(C)C)c(O)cc2O)c1-c1ccc(CN2CCOCC2)cc1 [Luminespib] (partner 0.01 µM)
# Assay: as above
# Conditions: first compound 0.08 µM
# Method in brief: as §1
row,Cell Line,relative viability
1,NCI-H522,1.25
2,NCI-H1623,0.496
3,NCI-H838,0.38
4,NCI-H1651,1.16
5,NCI-H1734,0.203
6,NCI-H2009,1.01
7,LU99A,0.256
8,PC-14,0.143
9,LCLC-103H,1
10,NCI-H596,0.938
11,NCI-H2228,0.107
12,EMC-BAC-2,1.15
13,NCI-H2087,0.17
14,NCI-H647,0.114
15,NCI-H2126,0.825
16,NCI-H2342,0.746

row,Cell Line,relative viability
1,NCI-H1793,0.182
2,H3255,0.902
3,COR-L23,0.603
4,COR-L 105,0.727
5,LOU-NH91,0.319
6,ChaGo-K-1,0.525
7,NCI-H358,0.286
8,NCI-H3122,0.125
9,HOP-62,0.952
10,HCC-44,0.974
11,SW 900,0.186
12,LXF-289,0.655
13,BEN,0.424
14,NCI-H1563,0.488
15,NCI-H1792,0.305

# Same assay, conditions: first compound 0.253 µM
row,Cell Line,relative viability
1,NCI-H522,1.07
2,NCI-H1623,0.453
3,NCI-H838,0.318
4,NCI-H1651,0.893
5,NCI-H1734,0.22
6,NCI-H2009,0.953
7,LU99A,0.213
8,PC-14,0.183
9,LCLC-103H,0.824
10,NCI-H596,0.959
11,NCI-H2228,0.159
12,EMC-BAC-2,1.23
13,NCI-H2087,0.183
14,NCI-H647,0.162
15,LK-2,0.161
16,NCI-H2126,0.855

row,Cell Line,relative viability
1,NCI-H2342,0.717
2,NCI-H1793,0.177
3,H3255,0.681
4,COR-L23,0.648
5,COR-L 105,0.769
6,LOU-NH91,0.351
7,ChaGo-K-1,0.605
8,NCI-H358,0.605
9,NCI-H3122,0.0766
10,HOP-62,0.8
11,HCC-44,0.939
12,SW 900,0.178
13,LXF-289,0.649
14,BEN,0.174
15,NCI-H1563,0.546
16,NCI-H1792,0.407

# Same assay, conditions: first compound 0.8 µM
row,Cell Line,relative viability
1,NCI-H522,1.34
2,NCI-H1623,0.369
3,NCI-H838,0.324
4,NCI-H1651,0.875
5,NCI-H1734,0.22
6,NCI-H2009,0.905
7,LU99A,0.242
8,PC-14,0.171
9,LCLC-103H,0.878
10,NCI-H596,0.809
11,NCI-H2228,0.194
12,EMC-BAC-2,1.15
13,NCI-H2087,0.137
14,NCI-H647,0.177
15,LK-2,0.207
16,NCI-H2126,0.9

row,Cell Line,relative viability
1,NCI-H2342,0.771
2,NCI-H1793,0.177
3,H3255,0.905
4,COR-L23,0.564
5,COR-L 105,0.755
6,LOU-NH91,0.33
7,ChaGo-K-1,0.57
8,NCI-H358,0.305
9,NCI-H3122,0.101
10,HOP-62,0.867
11,HCC-44,1.06
12,SW 900,0.172
13,LXF-289,0.573
14,BEN,0.488
15,NCI-H1563,0.546
16,NCI-H1792,0.375

# Same assay, conditions: first compound 2.53 µM
row,Cell Line,relative viability
1,NCI-H1623,0.371
2,NCI-H838,0.316
3,NCI-H1651,0.706
4,NCI-H1734,0.192
5,NCI-H2009,0.988
6,LU99A,0.302
7,PC-14,0.123
8,LCLC-103H,0.943
9,NCI-H596,0.911
10,NCI-H2228,0.164
11,EMC-BAC-2,1.1
12,NCI-H2087,0.21
13,NCI-H647,0.313
14,NCI-H2126,0.875
15,NCI-H2342,0.67
16,NCI-H1793,0.202
17,H3255,0.702
18,COR-L23,0.659
19,COR-L 105,0.591
20,LOU-NH91,0.297
21,ChaGo-K-1,0.589
22,NCI-H358,0.436
23,NCI-H3122,0.0836
24,HOP-62,0.914
25,HCC-44,1.01
26,SW 900,0.188
27,LXF-289,0.646
28,BEN,0.267
29,NCI-H1563,0.506
30,NCI-H1792,0.326

# Same assay, conditions: first compound 8 µM
row,Cell Line,relative viability
1,NCI-H522,1.28
2,NCI-H1623,0.391
3,NCI-H838,0.25
4,NCI-H1651,0.74
5,NCI-H1734,0.191
6,NCI-H2009,1.05
7,LU99A,0.254
8,PC-14,0.138
9,LCLC-103H,0.608
10,NCI-H596,0.814
11,NCI-H2228,0.17
12,EMC-BAC-2,1.13
13,NCI-H2087,0.126
14,NCI-H647,0.338
15,LK-2,0.183
16,NCI-H2126,0.865

row,Cell Line,relative viability
1,NCI-H2342,0.676
2,NCI-H1793,0.344
3,H3255,0.826
4,COR-L23,0.662
5,COR-L 105,0.665
6,LOU-NH91,0.314
7,ChaGo-K-1,0.372
8,NCI-H358,0.231
9,NCI-H3122,0.105
10,HOP-62,0.879
11,HCC-44,1.09
12,SW 900,0.178
13,LXF-289,0.69
14,BEN,0.356
15,NCI-H1563,0.541
16,NCI-H1792,0.351
